Experimental data reported in patent US20080058300A1, “Induction of weight loss and the selective inhibition of PTP1B” (priority 2006, published 2008).

Experiments:
[1] = target: T1, TCPTP (Homo sapiens, UniProt P17706); assay: TCPTP enzyme inhibition assay (DiFMUP substrate, spectrofluorimetric); type: biochemical
T1 construct: MDS Pharma (contract assay); host or cells: E. coli
T1 sequence (P17706 1-415): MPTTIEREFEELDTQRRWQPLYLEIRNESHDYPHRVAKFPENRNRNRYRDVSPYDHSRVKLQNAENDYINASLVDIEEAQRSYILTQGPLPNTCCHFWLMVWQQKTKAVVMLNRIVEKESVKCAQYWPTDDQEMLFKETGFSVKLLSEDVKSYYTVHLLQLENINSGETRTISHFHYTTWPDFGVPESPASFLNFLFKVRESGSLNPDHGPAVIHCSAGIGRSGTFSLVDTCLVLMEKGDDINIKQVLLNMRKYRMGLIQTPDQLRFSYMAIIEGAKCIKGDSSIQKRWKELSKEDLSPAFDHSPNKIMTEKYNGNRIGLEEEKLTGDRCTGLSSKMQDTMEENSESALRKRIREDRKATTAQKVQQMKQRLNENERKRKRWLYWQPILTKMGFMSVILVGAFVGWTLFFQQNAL
Experimental: In the PTP1B assay, phosphatase activity was quantitated through ELISA analysis of remaining tyrosine phosphopeptide after 30-minute incubations at room temperature with various concentrations of 1436 (0.05 μM to […]). […] The TCPTP assay required a 15-minute preincubation of enzyme and substrate at 37° C. followed by 60-minute incubations at 37° C. with various concentrations of 1436 (0.5 μM to 50 μM). TCPTP activity was assessed by spectrofluorimetric quantitation of DiFMU.

[2] = target: T2, Dopamine Transporter (DAT) (Homo sapiens, UniProt Q01959); assay: Radioligand binding assay, [125I] RTI-55, Dopamine Transporter; settings: human recombinant, CHO-K1 cell membranes; [125I] RTI-55 0.15 nM; 3 hours at 4° C.; read-out: ˜IC50, inhibition of binding to DAT
T2 construct: expressed in transfected cells; host or cells: CHO-K1 cells (membrane preparations)
T2 sequence (Q01959 whole entry): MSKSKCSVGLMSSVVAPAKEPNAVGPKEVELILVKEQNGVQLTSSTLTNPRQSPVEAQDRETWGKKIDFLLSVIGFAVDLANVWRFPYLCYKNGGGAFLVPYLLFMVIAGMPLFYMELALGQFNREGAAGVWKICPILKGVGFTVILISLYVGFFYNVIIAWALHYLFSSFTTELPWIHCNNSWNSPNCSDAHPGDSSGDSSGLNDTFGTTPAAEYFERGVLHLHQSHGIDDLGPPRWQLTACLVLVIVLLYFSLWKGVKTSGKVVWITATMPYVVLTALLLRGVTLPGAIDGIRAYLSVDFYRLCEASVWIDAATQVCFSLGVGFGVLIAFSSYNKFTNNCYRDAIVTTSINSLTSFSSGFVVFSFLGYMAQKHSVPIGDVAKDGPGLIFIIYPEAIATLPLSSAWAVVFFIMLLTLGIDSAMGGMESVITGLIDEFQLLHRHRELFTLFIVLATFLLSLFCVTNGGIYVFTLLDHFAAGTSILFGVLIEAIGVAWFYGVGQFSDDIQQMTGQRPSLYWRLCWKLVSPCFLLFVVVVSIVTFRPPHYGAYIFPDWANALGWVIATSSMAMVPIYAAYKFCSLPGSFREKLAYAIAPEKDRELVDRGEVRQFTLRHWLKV
Experimental: (§1) Inhibition of binding to the Dopamine Transporter (DAT) and Norepinephrine Transporter (NET) by MSI-1436 was determined in radioligand binding assays using human recombinant proteins expressed in CHO-K1 or MDCK cells, respectively. Membrane preparations were incubated with [^125I] RTI-55 (0.15 nM for DAT, 0.20 nM for NET) in the presence of 1436 (0.005 μM to 50 μM) for 3 hours at 4° C. IC50 values were determined as in PTP1B assays (See Table 2).

[3] = target: T3, Norepinephrine Transporter (NET) (Homo sapiens, UniProt P23975); assay: Radioligand binding assay, [125I] RTI-55, Norepinephrine Transporter; settings: human recombinant, MDCK cell membranes; [125I] RTI-55 0.20 nM; 3 hours at 4° C.; read-out: ˜IC50, inhibition of binding to NET
T3 construct: expressed in transfected cells; host or cells: MDCK cells (membrane preparations)
T3 sequence (P23975 whole entry): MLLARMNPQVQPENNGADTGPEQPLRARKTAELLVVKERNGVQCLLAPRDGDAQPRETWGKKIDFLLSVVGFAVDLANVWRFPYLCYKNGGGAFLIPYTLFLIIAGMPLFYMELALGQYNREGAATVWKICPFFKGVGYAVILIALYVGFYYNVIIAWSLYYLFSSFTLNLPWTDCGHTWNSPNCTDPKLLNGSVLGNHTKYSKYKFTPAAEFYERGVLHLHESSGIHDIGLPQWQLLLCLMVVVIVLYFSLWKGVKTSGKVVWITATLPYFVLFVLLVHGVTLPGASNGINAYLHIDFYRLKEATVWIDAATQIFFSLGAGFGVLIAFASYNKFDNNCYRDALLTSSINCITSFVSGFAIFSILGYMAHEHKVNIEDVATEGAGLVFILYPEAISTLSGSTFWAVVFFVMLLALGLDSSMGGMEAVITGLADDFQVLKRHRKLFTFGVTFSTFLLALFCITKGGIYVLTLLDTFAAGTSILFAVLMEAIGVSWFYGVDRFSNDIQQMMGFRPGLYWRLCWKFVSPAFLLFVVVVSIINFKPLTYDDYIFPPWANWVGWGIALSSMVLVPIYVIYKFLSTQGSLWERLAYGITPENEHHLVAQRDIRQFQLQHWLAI
Experimental: as §1

[4] = target: T4, CHO-K1 cells expressing dopamine transporters (Homo sapiens, UniProt Q01959); assay: Cellular uptake of [3H] Dopamine; type: cell-based
T4 construct: expressed in transfected cells; host or cells: CHO-K1 cells
T4 sequence (Q01959 whole entry): as the sequence (Q01959 whole entry) above
Experimental: (§2) After 10-minute incubations of the cells with radioactive ligands in the presence of compound at room temperature, quantitation of [^3H] Dopamine or [^3H] […] Significance criteria for antagonism was met if there was ≧50% inhibition of uptake as compared to the induced response of nomifensine (DAT) or desipramine (NET).

[5] = target: T5, MDCK cells expressing norepinephrine transporters (Homo sapiens, UniProt P23975); assay: Cellular uptake of [3H] Norepinephrine; type: cell-based
T5 construct: expressed in transfected cells; host or cells: MDCK cells
T5 sequence (P23975 whole entry): as the sequence (P23975 whole entry) above
Experimental: as §2

[6] = system: male AKR/J mice on 10%, 45% or 60% fat kcal diet; assay: Induction of weight loss in diet induced obese mice; type: in vivo
Description: (§3) Mice and Study Design. At weaning, male AKR/J mice from Jackson Laboratories (Bar Harbor, Me., USA) were placed on a 10%, 45%, or 60% fat kcal diet (Research Diets, Inc., New Brunswick, N.J., USA). Mice were weighed weekly and treatment began after 13-14 weeks of access to the different fat diets. Immediately before the start of treatment, mice from all three diets were randomly subdivided further into three groups within the same fat composition diet with an even weight distribution. All mice were dosed (i.p. route) on a q7dx4 schedule, where the first dose of 1436 was 10 mg/kg and all remaining doses were 5 mg/kg. Saline-treated animals were administered 10 mL/kg. Pair-fed animals were dosed with saline (10 mL/kg) on the same q7dx4 schedule on a 1-day stagger from the other groups. As a measure of food consumption, remaining food was weighed daily. Pair-fed groups were allotted the exact amount of food consumed by 1436-treated groups in the 24 hours prior. All procedures involving mice were performed in accordance with protocols approved by the Institutional Animal Care and Use Committee.

[7] = system: male AKR/J mice on 10%, 45% or 60% fat kcal diet; assay: Body composition of diet induced obese mice at end of study; type: in vivo; settings: i.p. q7dx4, 10 then 5 mg/kg
Description: as §3, with “Pair-fed groups were allotted the exact amount of food consumed by 1436-treated groups in the 24 hours prior. All procedures involving mice were performed in accordance with protocols approved by the Institutional Animal Care and Use Committee.” left out
Body Composition. Body composition (percent moisture, fat, protein and ash) was determined according to methods described with modifications (Official Methods of Analysis of AOAC INTERNATIONAL, 2000). […] Protein was determined through the combustion method for nitrogen detection and a factor of 6.25 was used to convert percent nitrogen to percent protein. To determine ash, samples were ignited at 550° C. for 5 hours and quantified gravimetrically.

[8] = system: male AKR/J mice on 60% fat diet; assay: Histology of adipose tissue in mice on 60% fat diet; type: in vivo; settings: mouse on 60% fat diet; i.p. q7dx4, 10 then 5 mg/kg
Description: as §3
Histology. Intrascapular brown adipose tissue was fixed in 10% zinc formalin (Fisher Scientific, Kalamazoo, Mich., USA) for 48 hours and transferred to 70% EtOH. Tissues were embedded in paraffin and […] sections were applied to glass microscope slides. […]

[9] = system: HepG2 cells; assay: Insulin receptor-beta phosphorylation in HepG2 cells (immunoprecipitation, Western blot); type: cell-based
Experimental: HepG2 cells (immortalized hepatocyte cells) were treated with 10 nM insulin, […], neither, or both for either 30 minutes or 3 hours in vitro. […] No difference in the amounts of insulin receptor-beta (IR-beta) was noted (Panel A). […] This effect was slightly diminished at 3 hours.

[10] = system: ob/ob mice; assay: Ex vivo liver IRS-1 phosphorylation in ob/ob mice (effect on PTP1B); settings: single dose 10 mg/kg i.p., 24 hours after treatment, livers harvested 2 min after portal vein insulin
Experimental: To examine the effect of MSI-1436 on PTP1B ex vivo, ob/ob mice were treated with either vehicle, MSI-1436 (single dose, 10 mg/kg, i.p.) or pair-fed control mice (n=4 per group). Twenty-four hours after the single treatment, mice were anesthetized and portal vein was exposed via an incision. Insulin or phosphate buffered saline (PBS) was injected into the portal vein and livers were harvested 2 min after the injection. Livers were lysed and lysates were immunoprecipitated with anti-insulin receptor substrate-1 (IRS-1) and then blotted for phosphotyrosine with the resultant blots representing phosphorylated insulin receptor substrate-1 (P-IRS-1). The blots were analyzed using imaging software.

inhibition of TCPTP at the concentrations tested ([1]; 1436 0.5 μM to 50 μM): no inhibition
IC50 ([1]; human recombinant protein expressed in E. Coli, DiFMUP 10 μM, 60-minute incubation at 37° C., estimated): > 50 µM
IC50 [2]: 1740 nM
IC50 [3]: 3.24 µM
inhibition at 0.05 µM ([4]; CHO-K1, 1436 0.05 μM): 1%
inhibition at 0.25 µM ([4]; CHO-K1, 1436 0.25 μM): 39%
inhibition at 0.5 µM ([4]; CHO-K1, 1436 0.5 μM): 57%
inhibition at 2.5 µM ([4]; CHO-K1, 1436 2.5 μM): 81%
inhibition at 5 µM ([4]; CHO-K1, 1436 5.0 μM): 94%
IC50 ([4]; CHO-K1 cells, 10-minute incubation at room temperature, read-out: IC50, inhibition of Dopamine uptake): 422 nM
IC50 ([5]; MDCK cells, 10-minute incubation at room temperature, read-out: IC50, inhibition of Norepinephrine uptake): 718 nM
inhibition at 0.05 µM ([5]; MDCK, 1436 0.05 μM): 22%
inhibition at 0.25 µM ([5]; MDCK, 1436 0.25 μM): 26%
inhibition at 0.5 µM ([5]; MDCK, 1436 0.5 μM): 33%
inhibition at 2.5 µM ([5]; MDCK, 1436 2.5 μM): 78%
inhibition at 5 µM ([5]; MDCK, 1436 5.0 μM): 95%
Structure (SMILES): CC(C)[C@@H](CC[C@@H](C)[C@H]1CC[C@H]2[C@@H]3[C@H](O)C[C@H]4C[C@@H](NCCCNCCCCNCCCN)CC[C@]4(C)[C@H]3CC[C@]12C)OS(=O)(=O)O [compound 1436]
body weight after treatment ([6]; 10%, 45% and 60% fat diet groups, i.p. q7dx4, first dose 10 mg/kg, remaining 5 mg/kg, three weeks): lost weight
effect on weight loss versus pair-fed group ([6]; i.p. q7dx4, 10 then 5 mg/kg, greatest in 60% fat group (p value 0.013)): greater than the effect of diet alone
% body fat (body composition at end of study) ([7]; all diets (10%, 45%, 60% fat)): lose significant % body fat
loss of body fat versus pair-fed groups [7]: trend for greater loss of body fat
amount of fat in brown adipose tissue (BAT), histology [8]: lost all of the fat gained by the 60% diet
amount of fat in white adipose tissue (WAT), histology [8]: lost all of the fat gained by the 60% diet
IR-beta phosphorylation, insulin plus MSI-1436 versus insulin alone ([9]; 10 nM insulin and 10 µM MSI-1436, 30 minutes): increased IR-beta phosphorylation
IR-beta phosphorylation, MSI-1436 alone ([9]; 10 µM MSI-1436 without insulin, 30 minutes or 3 hours): did not induce phosphorylation
insulin-induced phosphorylation of IRS-1 in liver [10]: enhanced the insulin-induced phosphorylation of IRS-1
